Reference: patent US8501713B2, “Drug combinations for the treatment of duchenne muscular dystrophy” (Summit Corporation PLC, priority 2007, dated 2013)

System: Utrophin A promoter linked to a luciferase reporter gene
Test: Luciferase reporter assay (murine H2K cells)
Type: cell-based
Settings: for activity at 10 µM: Mus musculus, H2K mdx, read-out: Activity
Outline: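 Immortalized mdx mouse H2K myoblasts stably carrying a ~5 kb utrophin A promoter–luciferase construct, kept at 33° C, 10% CO2. After 24 hrs plating, compound added at 10 μM final for 48 hrs; luciferase light output read after in-situ lysis.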

[1] = luciferase level relative to control, H2K/mdx/Utro A reporter cells, compound 10 μM final concentration
[2] = luciferase reporter assay in murine H2K cells, classified relative to control

CCS(=O)(=O)c1ccc2oc(-c3ccc4cc(F)ccc4c3)nc2c1 [Example 431, 5-(ethylsulfonyl)-2-(6-fluoronaphthalen-2-yl)benzo[d]oxazole]
activity at 10 µM [1]: < 200%

O=C(Nc1ccc2oc(-c3ccc(Cl)cc3)nc2c1)c1ccco1 [Example 102, N-(2-(4-chlorophenyl)benzo[d]oxazol-5-yl)furan-2-carboxamide]
activity at 10 µM [1]: < 200%

CC(C)C(=O)Nc1ccc2oc(-c3ccco3)nc2c1 [Example 419, N-(2-(furan-2-yl)benzo[d]oxazol-5-yl)isobutyramide]
activity at 10 µM [1]: > 401%

COc1ccc(C(=O)Nc2ccc3oc(-c4ccc(OC)cc4)nc3c2)cc1 [Example 83, 4-methoxy-N-(2-(4-methoxyphenyl)benzo[d]oxazol-5-yl)benzamide]
activity at 10 µM [1]: < 200%

Cc1ccc(-c2nc3cc(NCC(C)C)ccc3o2)cc1 [Example 186, N-isobutyl-2-p-tolylbenzo[d]oxazol-5-amine]
activity at 10 µM [1]: 301 to 400%

O=C(Cc1ccccc1)Nc1ccc(-c2nc3ccccc3[nH]2)cc1 [Example 501]
Activity [2]: + (Up to 200% relative to control)

O=C(Nc1ccc2oc(-c3ccccc3)nc2c1)c1ccc(Cl)c(Cl)c1 [Example 28, 3,4-dichloro-N-(2-phenylbenzo[d]oxazol-5-yl)benzamide]
activity at 10 µM [1]: < 200%

CC(C)NC(=S)c1ccc2oc(-c3ccc(Cl)cc3)nc2c1 [Example 274, 2-(4-chlorophenyl)-N-isopropylbenzo[d]oxazole-5-carbothioamide]
activity at 10 µM [1]: < 200%

Nc1ccc2nc(-c3ccccc3)oc2c1 [Example 155, 2-phenylbenzo[d]oxazol-6-amine]
activity at 10 µM [1]: 301 to 400%

CC(=O)Nc1ccc(-c2nc3cc(C)ccc3o2)cc1 [Example 662]
Activity [2]: +++ (Between 301% and 400% relative to control)

CC(C)S(=O)(=O)Nc1ccc2oc(-c3ccccc3)nc2c1 [Example 220, N-(2-phenylbenzo[d]oxazol-5-yl)propane-2-sulfonamide]
activity at 10 µM [1]: 201 to 300%

CCC(C)c1ccc2oc(-c3ccc(N)cc3)nc2c1 (stereo not drawn) [Example 609]
Activity [2]: +++ (Between 301% and 400% relative to control)

CCCC(=O)Nc1ccc2oc(-c3ccc(Cl)cc3)nc2c1 [Example 99, N-(2-(4-chlorophenyl)benzo[d]oxazol-5-yl)butyramide]
activity at 10 µM [1]: > 401%

CC(C)C(=O)Nc1ccc2oc(CCc3ccccc3)nc2c1 [Example 302, N-(2-phenethylbenzo[d]oxazol-5-yl)isobutyramide]
activity at 10 µM [1]: < 200%

CCN(CC)c1ccc(-c2nc3cc(S(=O)(=O)CC)ccc3o2)cc1 [Example 144, N,N-diethyl-4-(5-(ethylsulfonyl)benzo[d]oxazol-2-yl)aniline]
activity at 10 µM [1]: < 200%

Cc1cc2nc(-c3ccc(F)cc3F)oc2cc1C [Example 247, 2-(2,4-difluorophenyl)-5,6-dimethylbenzo[d]oxazole]
activity at 10 µM [1]: 201 to 300%

CC(C)(C)OC(=O)NCCC(=O)Nc1ccc2oc(-c3ccccc3)nc2c1 [Example 246, tert-butyl 3-oxo-3-(2-phenylbenzo[d]oxazol-5-ylamino)propylcarbamate]
activity at 10 µM [1]: < 200%

Nc1ccc(-c2ccc3oc(-c4ccc(Cl)cc4)nc3c2)cc1 [Example 329, 4-(2-(4-chlorophenyl)benzo[d]oxazol-5-yl)aniline]
activity at 10 µM [1]: > 401%

CCOCCC(=O)Nc1ccc(-c2nc3ccc(C)cc3s2)cc1 [Example 660]
Activity [2]: +++ (Between 301% and 400% relative to control)

CCSc1nc2ccc(N)cc2s1 [Example 563]
Activity [2]: ++ (Between 201% and 300% relative to control)

CC(C)C(=O)Nc1ccc2[nH]c(-c3ccc(Cl)cc3)nc2c1 [Example 195, N-(2-(4-chlorophenyl)-1H-benzo[d]imidazol-5-yl)isobutyramide]
activity at 10 µM [1]: 201 to 300%

Cc1ccc2oc(-c3ccc([N+](=O)[O-])cc3)nc2c1 [Example 505]
Activity [2]: ++ (Between 201% and 300% relative to control)

CC(C)C(=O)Nc1ccc2oc(-c3ccccc3)nc2c1 [Example 12, N-(2-phenylbenzo[d]oxazol-5-yl)isobutyramide]
activity at 10 µM [1]: 201 to 300%

O=[N+]([O-])c1ccc2nc(-c3ccc(Cl)cc3)[nH]c2c1 [Example 164, 2-(4-chlorophenyl)-6-nitro-1H-benzo[d]imidazole]
activity at 10 µM [1]: 201 to 300%

Nc1ccc2oc(-c3ccc4ccccc4n3)nc2c1 [Example 402, 2-(quinolin-2-yl)benzo[d]oxazol-5-amine]
activity at 10 µM [1]: 301 to 400%

Cc1ccc(-c2nc3cc(NC(=O)c4cccnc4)ccc3o2)cc1 [Example 113, N-(2-p-tolylbenzo[d]oxazol-5-yl)nicotinamide]
activity at 10 µM [1]: < 200%

CC(C)C(=O)Nc1ccc2nc(-c3cccc(Cl)c3Cl)oc2c1 [Example 354, N-(2-(2,3-dichlorophenyl)benzo[d]oxazol-6-yl)isobutyramide]
activity at 10 µM [1]: 301 to 400%

Cc1ccc(-c2nc3ccccc3[nH]2)cc1N [Example 620]
Activity [2]: ++++ (Above 401% relative to control)

Cc1ccc2oc(-c3cc(NC(=O)c4cncc(Br)c4)ccc3O)nc2c1 [Example 684]
Activity [2]: ++ (Between 201% and 300% relative to control)

CCCC(=O)Nc1ccc2oc(-c3ccccc3)nc2c1 [Example 10, N-(2-phenylbenzo[d]oxazol-5-yl)butyramide]
activity at 10 µM [1]: 301 to 400%

Cc1ccc(-c2nc3cc(N)ccc3o2)cc1C [Example 603]
Activity [2]: +++ (Between 301% and 400% relative to control)

O=C(Nc1ccc(-c2nc3ccccc3[nH]2)cc1)c1ccccc1 [Example 497]
Activity [2]: + (Up to 200% relative to control)

CC(C)C(=O)Nc1ccc2oc(-c3ccc(-c4ccccc4)cc3)nc2c1 [Example 411, N-(2-(biphenyl-4-yl)benzo[d]oxazol-5-yl)isobutyramide]
activity at 10 µM [1]: < 200%

O=C(Nc1ccc2oc(-c3ccccc3)nc2c1)c1ccc(C(F)(F)F)cc1 [Example 29, N-(2-phenylbenzo[d]oxazol-5-yl)-4-(trifluoromethyl)benzamide]
activity at 10 µM [1]: < 200%

CC(=O)Nc1ccc(-c2ccc3[nH]c(-c4ccc(Cl)cc4)cc3c2)cc1 [Example 367, N-(4-(2-(4-chlorophenyl)-1H-indol-5-yl)phenyl)acetamide]
activity at 10 µM [1]: < 200%

Nc1ccc2oc(-c3ccc(N4CCCCC4)cc3)nc2c1 [Example 150, 2-(4-(piperidin-1-yl)phenyl)benzo[d]oxazol-5-amine]
activity at 10 µM [1]: 201 to 300%

Nc1ccc2oc(-c3ccccc3O)nc2c1 [Example 38, 2-(5-aminobenzo[d]oxazol-2-yl)phenol]
activity at 10 µM [1]: 301 to 400%

Clc1ccc(-c2nc3cc(-c4ccc(Cl)nc4)ccc3o2)cc1 [Example 314, 2-(4-chlorophenyl)-5-(6-chloropyridin-3-yl)benzo[d]oxazole]
activity at 10 µM [1]: < 200%

Nc1ccc(-c2nc3cc(-c4ccc(Cl)cc4)ccc3o2)cc1 [Example 356, 4-(5-(4-chlorophenyl)benzo[d]oxazol-2-yl)aniline]
activity at 10 µM [1]: < 200%

COc1ccc(-c2nc3cc(NC(=O)c4ccco4)ccc3o2)cc1 [Example 140, N-(2-(4-methoxyphenyl)benzo[d]oxazol-5-yl)furan-2-carboxamide]
activity at 10 µM [1]: < 200%

Clc1ccc(OCc2nc3ccccc3[nH]2)c(Cl)c1 [Example 461]
Activity [2]: +++ (Between 301% and 400% relative to control)

CC(C)C(=O)Nc1ccc2oc(-c3cc(Cl)ccc3Cl)nc2c1 [Example 311, N-(2-(2,5-dichlorophenyl)benzo[d]oxazol-5-yl)isobutyramide]
activity at 10 µM [1]: < 200%

O=C(Nc1ccc2oc(-c3ccccc3)nc2c1)c1ccco1 [Example 13, N-(2-phenylbenzo[d]oxazol-5-yl)furan-2-carboxamide]
activity at 10 µM [1]: 201 to 300%

O=C(Nc1nc2ccccc2[nH]1)c1cccc(Cl)c1 [Example 679]
Activity [2]: ++ (Between 201% and 300% relative to control)

O=[N+]([O-])c1ccc2[nH]c(-c3ccco3)nc2c1 [Example 508]
Activity [2]: + (Up to 200% relative to control)

Cc1ccc(-c2nc3cc(-c4ccccc4)ccc3o2)cc1 [Example 161, 5-phenyl-2-p-tolylbenzo[d]oxazole]
activity at 10 µM [1]: 301 to 400%

Nc1ccc2oc(-c3cccc(F)c3)nc2c1 [Example 232, 2-(3-fluorophenyl)benzo[d]oxazol-5-amine]
activity at 10 µM [1]: > 401%

CC(=O)Nc1ccc(-c2nc3ccccc3o2)cc1 [Example 589]
Activity [2]: +++ (Between 301% and 400% relative to control)

COc1ccc2cc(-c3nc4cc(NC(=O)C(C)C)ccc4o3)ccc2c1 [Example 412, N-(2-(6-methoxynaphthalen-2-yl)benzo[d]oxazol-5-yl)isobutyramide]
activity at 10 µM [1]: < 200%

Nc1cccc(-c2nc3ccccc3s2)c1 [Example 602]
Activity [2]: +++ (Between 301% and 400% relative to control)

Cc1ccc(-c2nc3cc(NC(=O)C(F)(F)F)ccc3o2)cc1 [Example 209, 2,2,2-trifluoro-N-(2-p-tolylbenzo[d]oxazol-5-yl)acetamide]
activity at 10 µM [1]: 201 to 300%

Clc1ccc(OCc2nc3ccccc3[nH]2)cc1 [Example 495]
Activity [2]: + (Up to 200% relative to control)

CCCC(=O)Nc1ccc2oc(-c3ccc(C(F)(F)F)cc3)nc2c1 [Example 125, N-(2-(4-(trifluoromethyl)phenyl)benzo[d]oxazol-5-yl)butyramide]
activity at 10 µM [1]: < 200%

COc1ccc(-c2nc3ccccc3n2C)cc1OC [Example 521]
Activity [2]: + (Up to 200% relative to control)

O=C(CC(F)(F)F)Nc1ccc2oc(-c3ccc(Cl)c(Cl)c3)nc2c1 [Example 352, N-(2-(3,4-dichlorophenyl)benzo[d]oxazol-5-yl)-3,3,3-trifluoropropanamide]
activity at 10 µM [1]: > 401%

CC(=O)c1ccc2oc(-c3ccc(Cl)c(Cl)c3)nc2c1 [Example 453, 1-(2′-(3″,4″-Dichlorophenyl)benzo[d]oxazol-5′-yl)ethanone]
Activity [1]: ++++ (Above 401% relative to control)

CC(=O)Nc1ccc(-c2nc3cc(C)c(C)cc3o2)c(O)c1 [Example 433, N-(4-(5,6-dimethylbenzo[d]oxazol-2-yl)-3-hydroxyphenyl)acetamide]
activity at 10 µM [1]: 201 to 300%
